Tested on: LXRα and/or LXRβ
Assay: Co-transfection assay (LXRE luciferase reporter, CV-1 cells)
Format: cell-based, human
Settings: for IC50 or EC50 (potency, activation or inhibition): tested as described in Example 33, IC50 or EC50 for LXRα and/or LXRβ, isoform not specified, read-out: activity (IC50 or EC50 for LXR)
Description: To measure the ability of compounds to activate or inhibit the transcriptional activity of LXR in a cell based assay, the co-transfection assay was used. It has been shown that LXR functions as a heterodimer with RXR. For the co-transfection assay, expression plasmids for LXR and RXR are introduced via transient transfection into mammalian cells along with a luciferase reporter plasmid that contains one copy of a DNA sequence that is bound by LXR-RXR heterodimers (LXRE; Willy, P. et. al. 1995). Treatment of transfected cells with an LXR agonist increases the transcriptional activity of LXR, which is measured by an increase in luciferase activity.
CV-1 African Green Monkey Kidney Cells Co-transfection expression plasmids, comprising full-length LXRα (pCMX-h LXRα, LXRβ (pCMX-hLXRβ), or RXRα (pCMX-RXR), reporter plasmid (LXREx1-Tk-Luciferase), and control (pCMX-Galactosidase expression vector) (Willey et al. Genes & Development 9 1033-1045 (1995)). Transfection reagent such as FuGENE6 (Roche). 1× Cell lysis buffer (1% Triton X 100 (J T Baker X200-07), 10% Glycerol (J T Baker M778-07), 5 mM Ditriotreitol (Quantum Bioprobe DTT03; add fresh before lysing), 1 mM EGTA (Ethylene Glycol-bis(B-Amino ethyl ether)-N,N,N′,N′-Tetracetic Acid) (Sigma E-4378), 25 mM Tricine (ICN 807420) pH 7.8) 1× Luciferase assay buffer (pH at 7.8) (0.73 mM ATP, 22.3 mM Tricine, 0.11 mM EDTA, 33.3 mM DTT) 1× Luciferrin/CoA (11 mM Luciferin, 3.05 mM Coenzyme A, 10 mM HEPES)
CV-1 cells were prepared 24 hours prior to the experiment by plating them into T-175 flasks or 500 cm^2 dishes in order to achieve 70-80% confluency on the day of the transfection. The number of cells to be transfected was determined by the number of plates to be screened. Each 384 well plate requires 1.92×10^6 cells or 5000 cells per well. DNA Transfection Reagent was prepared by mixing the required plasmid DNAs with a cationic lipid transfection reagent FuGENE6 (Roche) by following the instructions provided with the reagents. Optimal DNA amounts were determined empirically per cell line and size of vessel to be transfected. 10-12 mL of media was added to the DNA Transfection Reagent and this mixture was added to the cells after aspirating media from the T175 cm^2 flask. Cells were then incubated at least 5 hours at 37° C. to prepare screening cells.
Luciferase assay reagent was prepared by combining before use (per 10 mL): 10 mL 1× Luciferase assay buffer; 0.54 mL of 1× Luciferrin/CoA; 0.54 mL of 0.2 M Magnesium sulfate
Assay plates were prepared by dispensing 5 μL, of compound per well of a 384 well plate to achieve final compound concentration of 10 μM and no more than 1% DMSO. Media was removed from the screening cells, the cells trypsinized, harvested cells by centrifugation, counted, and plated at a density of approximately 5000 cells per well in the 384 well assay plate prepared above in a volume of about 45 μL. Assay plates containing both compounds and screening cells (50 μL in total volume) were incubated for 20 hours at 37° C.
After incubation with compounds, media was removed from the cells and lysis buffer (30 μL/well) added. After 30 minutes at ambient temperature, luciferase assay buffer (30 μL/well) was added and the assay plates read on a luminometer (PE Biosystems Northstar reader with on-board injectors, or equivalent). Plates were read immediately after addition of luciferase assay buffer.
The LXR/LNRE co-transfection assay can be used to establish the EC50/IC50 values for potency and percent activity or inhibition for efficacy. Efficacy defines the activity of a compound relative to a high control ((N-(3-((4-fluorophenyl)-(naphthalene-2-sulfonyl)amino)propyl)-2,2-dimethylpropionamide)) or a low control (DMSO/vehicle). The dose response curves are generated from an 8 point curve with concentrations differing by ½ LOG units. Each point represents the average of 4 wells of data from a 384 well plate. […]

Row | SMILES | IC50 or EC50 (potency, activation or inhibition) | EC50 (read-out: activity (IC50 or EC50 for LXR), tested as described in Example 33, isoform not specified)
1 | CC(C)(O)c1cn(Cc2ccccc2Cl)c(-c2ccc(-c3cccc(S(C)(=O)=O)c3)cc2)n1 [Example 443, 2-(1-(2-chlorobenzyl)-2-(3′-(methylsulfonyl)biphenyl-4-yl)-1H-imidazol-4-yl)propan-2-ol] | < 1000 nM | 
2 | CS(=O)(=O)c1cccc(-c2ccc(-n3cc(C(=O)NCCF)nc3-c3c(Cl)cccc3Cl)cc2)c1 [Example 88, 2-(2,6-dichlorophenyl)-N-(2-fluoroethyl)-1-(3′-(methyl-sulfonyl)biphenyl-4-yl)-1H-imidazole-4-carboxamide] | < 1000 nM | 
3 | CS(=O)(=O)c1cccc(-c2ccc(-n3cc(C(=O)NCC(F)(F)F)nc3-c3c(Cl)cccc3Cl)cc2)c1 [Example 87, 2-(2,6-dichlorophenyl)-1-(3′-(methyl-sulfonyl)biphenyl-4-yl)-4-(2,2,2-trifluoroethyl)-1H-imidazole-4-carboxamide] | < 1000 nM | 
4 | C=C(C)c1cn(-c2ccc(-c3cccc(S(=O)(=O)CC)c3)cc2)c(-c2cccc(Cl)c2Cl)n1 [Example 77, 2-(2,3-dichlorophenyl)-1-(3′-(ethylsulfonyl)biphenyl-4-yl)-4-(prop-1-en-2-yl)-1H-imidazole] | < 1000 nM | 
5 | CCS(=O)(=O)c1cccc(-c2ccc(-n3cc(C(C)(C)O)nc3Cc3cccc(Cl)c3Cl)c(C)c2)c1 [Example 24, 2-(2-(2,3-dichlorobenzyl)-1-(3′-(ethylsulfonyl)-3-methylbiphenyl-4-yl)-1H-imidazol-4-yl)propan-2-ol] |  | < 1000 nM
6 | CCS(=O)(=O)c1cccc(-c2ccc(-c3nc(C(C)(C)O)cn3-c3c(Cl)cccc3Cl)cc2)c1 [Example 64, 2-(1-(2,6-dichlorophenyl)-2-(3′-(ethylsulfonyl)biphenyl-4-yl)-1H-imidazol-4-yl)propan-2-ol] | < 1000 nM | 
7 | CC(C)(O)c1cn(-c2ccc(-c3cccc(N)c3)cc2)c(-c2ccccc2Cl)n1 [Example 405, 2-[1-(3′-aminobiphenyl-4-yl)-2-(2-chlorophenyl)-1H-imidazol-4-yl]propan-2-ol] | 1000 to 10000 nM | 
8 | CC(C)(O)c1cn(-c2ccc(-c3ccc(CO)c(S(C)(=O)=O)c3)cc2)c(-c2cccc(Cl)c2Cl)n1 [Example 98, 2-(2-(2,3-dichlorophenyl)-1-(4′-(hydroxymethyl)-3′-(methyl-sulfonyl)biphenyl-4-yl)-1H-imidazol-4-yl)propan-2-ol] | < 1000 nM | 
9 | C/C(=N\O)c1cn(-c2ccc(-c3cccc(S(C)(=O)=O)c3)cc2)c(-c2c(Cl)cccc2Cl)n1 [Example 70, (E)-1-(2-(2,6-dichlorophenyl)-1-(3′-(methylsulfonyl)biphenyl-4-yl)-1H-imidazol-4-yl)ethanone oxime] | < 1000 nM | 
10 | CCC(O)(CC)c1cn(-c2ccc(-c3cccc(S(=O)(=O)CC)c3)cc2)c(Cc2ccccc2Cl)n1 [Example 14] | < 1000 nM | 
11 | Cc1cc(-c2ccc(CO)c(S(C)(=O)=O)c2)ccc1-n1cc(C(C)(C)O)nc1-c1cccc(Cl)c1C [Example 175, 2-(2-(3-chloro-2-methylphenyl)-1-(4′-(hydroxymethyl)-3-methyl-3′-(methylsulfonyl)biphenyl-4-yl)-1H-imidazol-4-yl)propan-2-ol] | < 1000 nM | 
12 | CCS(=O)(=O)c1cccc(-c2ccc(-n3cc(C(C)(C)O)nc3-c3c(C)cccc3Cl)cc2)c1 [Example 97, 2-(2-(2-chloro-6-methylphenyl)-1-(3′-(ethylsulfonyl)biphenyl-4-yl)-1H-imidazol-4-yl)propan-2-ol] | 1000 to 10000 nM | 
13 | CC(C)(O)c1cn(-c2ccc(-c3ccc(C(C)(C)O)c(S(C)(=O)=O)c3)cc2Cl)c(-c2ccccc2C(F)(F)F)n1 [Example 163, 2-(1-(3-chloro-4′-(2-hydroxypropan-2-yl)-3′-(methylsulfonyl)biphenyl-4-yl)-2-(2-(trifluoromethyl)phenyl)-1H-imidazol-4-yl)propan-2-ol] | < 1000 nM | 
14 | CON(C)C(=O)c1ccc(-c2ccc(-n3cc(C(C)(C)O)nc3-c3c(F)cccc3Cl)c(Cl)c2)cc1S(C)(=O)=O [Example 448, 3′-chloro-4′-(2-(2-chloro-6-fluorophenyl)-4-(2-hydroxypropan-2-yl)-1H-imidazol-1-yl)-N-methoxy-N-methyl-3-(methylsulfonyl)biphenyl-4-carboxamide] | > 10000 nM | 
15 | CCN(CC)C(=O)c1cn(-c2ccc(-c3cccc(S(C)(=O)=O)c3)cc2C)c(-c2c(Cl)cccc2Cl)n1 [Example 86, 2-(2,6-dichlorophenyl)-N,N-diethyl-1-(3-methyl-3′-(methylsulfonyl)biphenyl-4-yl)-1H-imidazole-4-carboxamide] | < 1000 nM | 

Now from value to compound, other results behind:

Row | IC50 or EC50 (potency, activation or inhibition) | SMILES | EC50 (read-out: activity (IC50 or EC50 for LXR), tested as described in Example 33, isoform not specified)
16 | < 1000 nM | CCS(=O)(=O)c1cccc(-c2ccc(-n3cc(C(C)(C)O)nc3-c3ccccc3C(F)(F)F)c(F)c2)c1 [Example 110, 2-(1-(3′-(ethylsulfonyl)-3-fluoro-biphenyl-4-yl)-2-(2-(trifluoromethyl)phenyl)-1H-imidazol-4-yl)propan-2-ol] | 
17 | < 1000 nM | CC(C)(O)c1cn(-c2ccc(-c3cccc(S(C)(=O)=O)c3)cc2Cl)c(-c2ccccc2C(F)(F)F)n1 [Example 135, 2-(1-(3-chloro-3′-(methyl-sulfonyl)biphenyl-4-yl)-2-(2-(trifluoromethyl)phenyl)-1H-imidazol-4-yl)propan-2-ol] | 
18 | < 1000 nM | CC(C)(O)c1cn(-c2ccc(-c3ccc(CO)c(S(C)(=O)=O)c3)cc2F)c(-c2cccc(F)c2Cl)n1 [Example 125, 2-(2-(2-chloro-3-fluorophenyl)-1-(3-fluoro-4′-(hydroxymethyl)-3′-(methylsulfonyl)biphenyl-4-yl)-1H-imidazol-4-yl)propan-2-ol] | 
19 | < 1000 nM | CCS(=O)(=O)c1cccc(-c2ccc(-n3cc(C(C)(C)O)nc3-c3cccc4ccccc34)c(Cl)c2)c1 [Example 31, 2-(1-(3-chloro-3′-(ethyl-sulfonyl)biphenyl-4-yl)-2-(naphthalen-1-yl)-1H-imidazol-4-yl)propan-2-ol] | 
20 | < 1000 nM | Cc1cc(-c2cccc(S(C)(=O)=O)c2)ccc1-n1cc(C(C)(C)O)nc1-c1cccc(Cl)c1C [Example 189, 2-(2-(3-chloro-2-methylphenyl)-1-(3-methyl-3′-(methylsulfonyl)biphenyl-4-yl)-1H-imidazol-4-yl)propan-2-ol] | 
21 | 1000 to 10000 nM | CCS(=O)(=O)c1cccc(-c2ccc(-n3cc(C(C)(C)O)nc3-c3c(F)cccc3Cl)cc2)c1 [Example 92, 2-(2-(2-chloro-6-fluorophenyl)-1-(3′-(ethylsulfonyl)biphenyl-4-yl)-1H-imidazol-4-yl)propan-2-ol] | 
22 | < 1000 nM | CCS(=O)(=O)c1cccc(-c2ccc(-n3cc(C(C)(C)O)nc3-c3cccc(F)c3Cl)c(F)c2)c1 [Example 124, 2-(2-(2-chloro-3-fluorophenyl)-1-(3′-(ethylsulfonyl)-3-fluorobiphenyl-4-yl)-1H-imidazol-4-yl)propan-2-ol] | 
23 | < 1000 nM | CCS(=O)(=O)c1cccc(-c2ccc(-c3nc(C(C)(C)O)cn3-c3ccccc3C(C)C)c(C)c2)c1 [Example 62, 2-(2-(3′-(ethylsulfonyl)-3-methyl-biphenyl-4-yl)-1-(2-isopropylphenyl)-1H-imidazol-4-yl)propan-2-ol] | 

Source: US9000022B2 (Exelixis Patent Company LLC, priority 2005, dated 2015)
